From US4309559A, “Sulphonamides useful as pesticides” (FBC Limited, priority 1977, dated 1982)
Read-outs that look alike come from different tables or passages of the source.

What was measured:
[1] = system: rice blast Pyricularia oryzae; type: in vivo; settings: soil and leaves, 7 days, controls less than 5%
[2] = system: potato blight Phytophthora infestans; type: in vivo; settings: 500 ppm; 5 days; controls less than 5%

`CON=C(C)CN(c1c(C)cccc1C)S(C)(=O)=O` [Example 249] was tested, and the “% Control, rice blast” value ([1]; 500 ppm) was 66% and the “% Control, potato blight” value [2] was 74%.
For `CS(=O)(=O)N(CC#N)c1ccc(SC#N)cc1` [Example 141], the “% Control, rice blast” value ([1]; 2000 ppm) was 84%.
